Source: patent publication US6710090B2, “Inhibitory or blocking agents of molecular generating and/or inducing functions” (priority 1994, dated 2004)

Legend:
[1] = Softening and flexibility effect on skin; design: species or system rabbit and dog; conditions: histology, hematoxylin eosin staining
Protocol: In order to investigate changes of softening and flexibility on skin from rabbit and dog, each skin was is dipped in 5 ml of physiological saline with 10 μl of the test solution. This test solution was prepared from 88 ml of physiological saline with 2 ml of polyoxyethylene (20) sorbitan monoolate 1 (Wakou Jyunyaku Co.) that is identical to Tween80 (ICI Co.) as the basal solution of control. As the treated solution, 10 ml of Yoshixol was added in the basal solution. […] Surgical stitching by the needle was easily to be inserted and transfixed in the skin. […] And, the sample treated with Yoshixol was observed as the preparation which was made from a fresher sample by hematoxylin eosin staining in contrast to the skin sample treated with the test solution of control. Moreover, a similar observation on histological pictures of each sample was obtained even when each skin sample was thawed at 20° C. after storaging each sample at 4° C. in the refrigeration for one month.

[2] = test system: rejected reaction on heterogeneous skin implantation; assay: Heterogeneous skin implantation, recipient dogs given Yoshixol intravenously; assay type: in vivo, dog (rabbit skin)
mouse hepatoma cells = assay: Anti-cancer effect, cultured mouse hepatoma cells; assay type: cell-based; conditions: compared with keratinocytes treated with Yoshixol
[3] = molecular target: T1, Recombinant Taq DNA Polymerase (Thermus aquaticus, UniProt P19821); assay: PCR with polymerase enzymes treated with Yoshixol; assay type: biochemical
T1 construct: purchased TaKaRa Shuzo Co., Otsu city R001A
Protocol: Effect of Yoshixol on PCR was investigated by DNA template which was extracted from snake (blue-green snake, captured at Matsumoto city, Nagano). The new synthesized dimer of (SEQ ID NO: 2) (5′>CTTCGGGCTTCGGG<3′) with 7 base-pair alignment (CTTCGGG) above-mentioned was used as a primer. PCR reaction was done by use of DNA thermal cycler (PJ-2000) made in PERKIN ELMER CETUS company. The following six combinations were prepared for the test samples. Those are two kinds of samples which consist of 5 μl of primer (100 pico mole/μl) with 5 μl of Yoshixol (P+) and without Yoshixol (P−). In addition, two kinds of samples which consist of 5 μl. of snake DNA (500 ng/μl) with 5 μl of Yoshixol (D+) and without Yoshixol (D−). And, additional two kinds of samples which consist of 1 μl of polymerase enzymes (Recombinant Taq DNA Polymerase, No. R001A, TaKaRa Shuzo Co., Otsu city: 5 unit/pd) with 1 μl of Yoshixol (Pm+) and without Yoshixol (Pm−). After each sample was placed for 10 minutes at room temperature, each sample was diluted in distilled water. And, it is adjusted in a primer solution of 10 picomole/μl, DNA solution of 50 ng/μl and a polymerase enzymes solution of 0.5 unit/μl. Then, the following combinations were prepared. […] In each combination, amount of cDNA synthesis was amplified by a PCR method and was measured. […]

[4] = test system: chicken myeloblastosis virus (AMV) reverse transcriptase; assay: AMV reverse transcriptase, amount of cDNA synthesis; assay type: biochemical; conditions: 0.01 μl of Yoshixol added to 25 units AMV reverse transcriptase, RNA 5 μg, PCR
Protocol: In order to investigate the effect on virus, changes in structure of single strand DNA, double strand DNA and mRNA of E. coli bacteriophage (1 ml of 1 mol solution), which were prepared as non-treated sample and treated sample with 4 μl of Yoshixol, were observed by scanning and transmission electron microscopes. In addition, according a general bacteriological technique, changes in proliferation and in morphological aspect (by scanning and transmission electron microscopes) of E. Coli, which was infected by single strand DNA, double strand DNA or mRNA, were investigated before and after treatment of each phage with Yoshixol. As treated samples, 4 μl of Yoshixol was added in 1 ml of each phage solution which concentration was adjusted to 1 mol. […] In addition, an effect of Yoshixol on chicken myeloblastosis virus (AMV) reverse transcriptase (Gibco Co. Getesburg, Md., USA) was investigated by measuring amount of cDNA synthesis, which was amplified by PCR of RNA(5 μg) and AMV reverse transcriptase (25 units). As treated group, 0.01 μl of Yoshixol was added to 25 units sample of the AMV reverse transcriptase. Thus, the expected production of cDNA was obtained in the non-treated group, however, the amount of cDNA production decreased to 10% of the expected one when Yoshixol was treated (referred FIG. 15).

[5] = test system: atypical mycobacteria (Mycobacterium Rapid Grower); assay: Anti-microbacterial effect on acid-fast bacteria; assay type: cell-based

C=C1CC(C)(C)C=CC1=O [Yoshixol, 4,4-dimethyl-6-methylene-2-cyclohexen-1-one]
structure damages of each skin [1]: did not found histologically
epithelialization of wounded skin ([2]; dogs, 10 μl/Kg per day intravenously for one week, 3 month after implantation): well epithelialization was found
implantation of transplanted rabbit skin ([2]; dogs, 10 μl/Kg per day of Yoshixol intravenously for one week, no antibiotics or immunosuppressants): implanted on the back of dog over 1 month without a rejection reaction and bacterial infection
behaviors of adult mongrel dog ([2]; intravenous administration, compared with before the treatment): became vigor, youthful and appetite-well
structure between cells and cellular aspect (mouse hepatoma cells): observations similar to the above were found
PCR bounds, group P−, D−, Pm+ ([3]; 1 μl polymerase with 1 μl of Yoshixol, untreated 4 bounds between 0.5 and 1.2 kb): only one bound at lowest molecular weight within 4 bounds was appeared
PCR bounds, group P−, D−, Pm+A ([3]; concentration of Yoshixol for the polymerase increased to 100 times): any kind of bounds did not observe
amount of cDNA production, of the expected one [4]: 10%
proliferation with evaporating component of Yoshixol ([5]; 50 μl in the whole space of the schale, indirect contact, 24 hours, 37° C.): did not occur
diameter of inhibition zone of proliferation ([5]; at 2 μl): 22 mm
dosage at which formation of inhibition zone of proliferation occurred ([5]; brain-heart infusion agar): 0.2 μl of Yoshixol per 1 ml of the culture medium
